Test results: patent US11584744B2 (UNIVERSITY OF WASHINGTON, priority 2017, dated 2023)
pEC50, pIC50: −log10 of the molar value. Converted amounts (≈) assume the structure as drawn. “And” between values parts separate entries of the source, which are not always exact repeats. Equal values may be shown once. Read-outs that look alike come from different tables or passages of the source.

Tests used:
T. cruzi = T. cruzi growth inhibition; format: cell-based, Trypanosoma cruzi; conditions: read-out: (E) T. cruzi EC50
MetRS (C. parvum) = MetRS (C. parvum) (Cryptosporidium parvum, UniProt Q5CVN0); assay: MetRS (C. parvum) enzyme inhibition; format: biochemical; conditions: read-out: (C) MetRS (C. parvum) IC50
[1] = molecular target: recombinant S. aureus MetRS enzyme (Staphylococcus aureus, UniProt A0A0H2XID2); assay: Inhibition of SaMetRS, ATP depletion assay; format: biochemical; conditions: read-out: (B) MetRS (S. aureus) IC50
Protocol: Production of recombinant S. aureus MetRSs. The SaMetRS gene (UniProtKB—A0A0H2XID2) was PCR amplified (Sense 5′-[…]-3′ (SEQ ID NO: 1) and Antisense 5′-[…]-3′ (SEQ ID NO:2)) from genomic DNA isolated from S. aureus (ATCC 29213) cultures. The PCR product was then cloned into the AVA0421 plasmid and sequence verified. The expression of recombinant protein was performed as previously described. The N-terminal 6-His fusion proteins were purified by nickel affinity chromatography followed by size exclusion gel chromatography (Superdex 75 26/60; GE Biosciences, Piscataway, N.J.).
Enzyme assays. Inhibition of SaMetRS was measured using the ATP depletion assay as previously described with some modifications. Compounds were pre-incubated for 15 minutes at room temperature in a 96-well plate with 400 μg/mL bulk E. coli tRNA, 25 nM SaMetRS, 0.1 U/mL pyrophosphatase, 0.2 mM spermine, 0.1 mg/mL bovine serum albumin, 2.5 mM dithiothreitol, 25 mM HEPES-KOH pH 7.9, 10 mM MgCl2, 50 mM KCl, and 2% DMSO. Reagents were purchased from Sigma-Aldrich or Roche. The reaction was started with the addition of 150 nM ATP and 20 μM L-methionine and after 120 minute incubation was stopped by the addition of an equal volume (50 μL) of Kinase-Glo® (Promega). Percent inhibition=100×(test compound−AVG low control)/(AVG high control−AVG low control) where the low control is all reagents except the compound and the high control is all reagents except the compounds and L-methionine. IC50 values were calculated by non-linear regression, sigmoidal-dose response, in Prism 3.0.

[2] = test system: S. aureus MSSA (ATCC 29213); assay: MIC susceptibility testing; format: cell-based, Staphylococcus aureus; conditions: Staphylococcus aureus, S. aureus ATCC 29213, read-out: (F) S. aureus (ATCC 29213) MIC
[3] = test system: S. aureus MRSA (ATCC 33591); assay: MIC susceptibility testing; format: cell-based, Staphylococcus aureus; conditions: MRSA ATCC33591; for MIC: Staphylococcus aureus, read-out: (G) MRSA (ATCC33591) MIC
Method in brief: (§1)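 CLSI broth microdilution with two-fold compound dilutions, in triplicate; cells added in medium at 1×10^6 CFUs/mL, DMSO ≤0.5%. Media: MHB for S. aureus, CA-MHB for E. coli and E. faecium, CA-MHB plus 3% laked horse blood for S. pyogenes (5% CO2).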

MetRS (T. brucei) = molecular target: T1, MetRS (T. brucei) (Trypanosoma brucei brucei, UniProt Q38C91); assay: MetRS (T. brucei) enzyme inhibition; format: biochemical
T1 sequence (Q38C91 1-773): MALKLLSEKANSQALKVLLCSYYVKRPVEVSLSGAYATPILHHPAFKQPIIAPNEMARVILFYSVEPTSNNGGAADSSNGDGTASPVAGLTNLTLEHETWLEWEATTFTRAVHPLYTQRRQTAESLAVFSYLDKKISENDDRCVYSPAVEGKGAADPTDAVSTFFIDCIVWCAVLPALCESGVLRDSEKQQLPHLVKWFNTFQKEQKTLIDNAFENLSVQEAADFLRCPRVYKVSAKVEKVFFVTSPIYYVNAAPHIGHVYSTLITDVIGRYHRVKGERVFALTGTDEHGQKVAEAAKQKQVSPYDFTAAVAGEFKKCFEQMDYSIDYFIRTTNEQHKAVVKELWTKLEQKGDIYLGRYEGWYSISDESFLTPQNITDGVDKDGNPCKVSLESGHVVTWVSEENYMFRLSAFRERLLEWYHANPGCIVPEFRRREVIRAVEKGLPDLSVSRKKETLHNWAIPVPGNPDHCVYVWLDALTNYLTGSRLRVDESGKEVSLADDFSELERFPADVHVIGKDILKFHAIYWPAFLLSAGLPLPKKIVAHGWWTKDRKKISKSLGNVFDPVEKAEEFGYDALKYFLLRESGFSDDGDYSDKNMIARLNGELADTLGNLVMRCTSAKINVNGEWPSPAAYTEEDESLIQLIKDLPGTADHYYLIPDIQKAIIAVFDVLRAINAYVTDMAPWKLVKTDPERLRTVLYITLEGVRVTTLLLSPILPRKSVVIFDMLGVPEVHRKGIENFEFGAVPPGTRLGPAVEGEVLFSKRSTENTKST

[4] = test system: E. faecium VRE (ATCC 51559); assay: MIC susceptibility testing; format: cell-based, Enterococcus faecium; conditions: Enterococcus faecium, E. faecium ATCC 51559; read-out: (I) E. faecium (ATCC 51559) MIC
Method in brief: as §1

T. brucei = T. brucei growth inhibition; format: cell-based, Trypanosoma brucei; conditions: read-out: (D) T. brucei EC50
C. parvum = C. parvum growth inhibition; format: cell-based, Cryptosporidium parvum; conditions: Cryptosporidium parvum; read-out: (J) C. parvum EC50
S. pyogenes (ATCC 19615) = assay: MIC susceptibility testing; format: cell-based; conditions: Streptococcus pyogenes, ATCC19615, S. pyogenes ATCC 19615; read-out: (H) S. pyogenes (ATCC 19615) MIC
Source text: Media and culture conditions. Mueller Hinton broth (MHB), cation adjusted Mueller Hinton broth (CA-MHB), and Brain Heart Infusion broth (BHI) were purchased from Becton Dickinson (Franklin Lakes, N.J.). Tryptic soy agar (TSA) plates, TSA with 5% sheep blood plates, and CA-MHB with 3% laked horse blood were purchased from Remel (San Diego, Calif.). MHB was used to assay all Staphylococcus aureus strains. CA-MHB was used for Staphylococcus epidermidis, Enterococcus faecalis, Enterococcus faecium, Escherichia coli, and Pseudomonas aeruginosa. CA-MHB supplemented with 3% laked horse blood was used for Streptococcus pneumoniae and Streptococcus pyogenes. Staphylococcus, Enterococcus, Escherichia, and Pseudomonas strains were cultured at 37° C. with ambient air. Streptococcus strains were cultured in 37° C. with 5% CO2. Separate conditions for radiolabeled precursor uptake assays are described below.
Susceptibility testing: Minimum inhibitory concentration (MIC) determinations were performed in triplicate in 96-well round bottom microtiter plates (Corning, Corning N.Y.) as described by the Clinical and Laboratory Standards Institute (CLSI). Serial two-fold dilutions of compounds were added to plates in 50 μL volumes. An additional 50 μL of media containing bacterial cells (1×10^6 CFUs/mL) was then added to each well. Maximum DMSO concentrations were 0.5%. Plates were incubated at 37° C. for at least 18 h before reading the susceptibility result by optical absorbance (OD600) using a BioTek ELx800. The lowest concentration causing ≥90% growth inhibition compared to the untreated control was recorded as the MIC (and also corresponded to the visual MIC). MICs were measured at least twice and the higher value (if different) was recorded herein.

Sequence of MetRS (C. parvum) (Q5CVN0 entry or part of it): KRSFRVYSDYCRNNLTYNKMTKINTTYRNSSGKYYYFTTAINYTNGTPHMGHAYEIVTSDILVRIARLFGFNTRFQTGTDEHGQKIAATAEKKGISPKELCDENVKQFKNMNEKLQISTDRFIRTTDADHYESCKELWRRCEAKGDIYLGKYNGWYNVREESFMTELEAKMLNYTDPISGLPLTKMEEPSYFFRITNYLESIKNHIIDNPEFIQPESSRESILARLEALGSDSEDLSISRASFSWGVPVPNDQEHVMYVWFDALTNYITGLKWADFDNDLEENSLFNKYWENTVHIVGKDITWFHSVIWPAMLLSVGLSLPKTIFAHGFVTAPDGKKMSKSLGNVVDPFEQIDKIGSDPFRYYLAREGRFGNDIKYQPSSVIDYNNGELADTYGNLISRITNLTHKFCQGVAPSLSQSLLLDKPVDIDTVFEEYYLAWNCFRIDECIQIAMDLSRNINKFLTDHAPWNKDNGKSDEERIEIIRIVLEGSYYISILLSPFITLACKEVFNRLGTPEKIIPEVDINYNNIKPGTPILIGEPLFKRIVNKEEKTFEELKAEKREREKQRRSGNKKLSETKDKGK
Sequence of recombinant S. aureus MetRS enzyme (A0A0H2XID2 2-657): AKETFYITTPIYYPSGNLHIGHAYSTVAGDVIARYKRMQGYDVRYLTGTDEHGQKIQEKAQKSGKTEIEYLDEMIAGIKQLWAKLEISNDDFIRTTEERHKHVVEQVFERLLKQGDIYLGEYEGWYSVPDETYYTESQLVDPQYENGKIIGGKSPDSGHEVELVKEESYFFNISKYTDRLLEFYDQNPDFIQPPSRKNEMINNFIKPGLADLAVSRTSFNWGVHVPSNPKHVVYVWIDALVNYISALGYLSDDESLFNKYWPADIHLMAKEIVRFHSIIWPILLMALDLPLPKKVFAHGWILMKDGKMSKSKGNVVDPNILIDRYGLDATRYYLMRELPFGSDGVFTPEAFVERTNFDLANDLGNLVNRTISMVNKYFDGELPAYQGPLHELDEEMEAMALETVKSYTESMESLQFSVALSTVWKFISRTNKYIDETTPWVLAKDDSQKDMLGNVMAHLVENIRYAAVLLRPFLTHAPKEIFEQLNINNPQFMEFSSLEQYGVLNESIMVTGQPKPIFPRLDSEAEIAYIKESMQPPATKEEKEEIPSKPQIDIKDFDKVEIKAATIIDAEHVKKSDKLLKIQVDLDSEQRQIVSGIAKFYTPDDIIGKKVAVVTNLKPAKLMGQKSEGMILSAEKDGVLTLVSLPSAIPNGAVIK

Structure (SMILES)	pEC50 (T. cruzi; Trypanosoma cruzi)	pIC50 (MetRS (C. parvum))	pIC50 [1]	MIC [2] [µg/mL]	MIC [3] [µg/mL]	pIC50 (MetRS (T. brucei))	MIC [4] [µg/mL]	pEC50 (T. cruzi)	pEC50 (T. brucei; Trypanosoma brucei)	pEC50 (T. brucei)	pEC50 (C. parvum)	(G) MRSA (ATCC33591) MIC [3]	MIC (S. pyogenes (ATCC 19615)) [µg/mL]	MIC ([2]; ATCC29213|MSSA) [µg/mL]
COCCCn1c(Cc2ccc(Cl)cc2Cl)cn(Cc2nc3ccc(F)nc3[nH]2)c1=O [Compound 2082, 4-[(2,4-dichlorophenyl)methyl]-1-({5-fluoro-1H-imidazo[4,5-b]pyridin-2-yl}methyl)-3-(3-methoxypropyl)-2,3-dihydro-1H-imidazol-2-one]	6.84	> 7.40	> 7.60	0.18 (≈ 0.388 µM)	1.54 (≈ 3.32 µM)	> 7.40	0.238 (≈ 0.513 µM)	–	–	–	–	–	–	–
COc1cc(-c2cccc3nc(Cc4nc5nc(Cl)ccc5[nH]4)cn23)c(Cl)cc1Cl [Compound 2128, 2-({5-chloro-1H-imidazo[4,5-b]pyridin-2-yl}methyl)-5-(2,4-dichloro-5-methoxyphenyl)imidazo[1,2-a]pyridine]	8.23	> 7.40	> 7.60	–	–	> 7.40	0.24 (≈ 0.523 µM)	7.97	8.44	8.47	5.77	–	–	–
Clc1ccc(-c2cccc3nc(Cc4nc5nc(Cl)ccc5[nH]4)cn23)c(Cl)c1 [Compound 2134, 2-({5-chloro-1H-imidazo[4,5-b]pyridin-2-yl}methyl)-5-(2,4-dichlorophenyl)-imidazo[1,2-a]pyridine]	6.16	7.23	> 7.60	0.162 (≈ 0.378 µM)	0.268 (≈ 0.625 µM)	> 7.40	0.259 (≈ 0.604 µM)	–	7.19	–	–	0.331 µg/mL	–	–
O=c1n(Cc2nc3ccc(Cl)nc3[nH]2)cc(Cc2ccc(Cl)cc2Cl)n1CC(F)F [Compound 2138, 1-({5-chloro-1H-imidazo[4,5-b]pyridin-2-yl}methyl)-4-[(2,4-dichlorophenyl)-methyl]-3-(2,2-difluoroethyl)-2,3-dihydro-1H-imidazol-2-one]	7.57	> 7.40	> 7.60	0.062 (≈ 0.131 µM)	0.553 (≈ 1.17 µM)	> 7.40	0.596 (≈ 1.26 µM)	7.27	8.61	8.46	–	–	–	–
COc1cc(-c2cccc3nc(Cc4nc5nc(Br)ccc5[nH]4)cn23)c(Cl)cc1Cl [Compound 2146, 2-({5-bromo-1H-imidazo[4,5-b]pyridin-2-yl}methyl)-5-(2,4-dichloro-5-methoxyphenyl)imidazo[1,2-a]pyridine]	7.71	7.03	> 7.60	–	0.127 (≈ 0.252 µM)	> 7.40	0.141 (≈ 0.28 µM)	7.53	–	–	5.70	0.165, μg/mL and 0.179 μg/mL	–	–
COc1ccc(-c2ccc3c(=O)ccn(Cc4nc5nc(F)ccc5[nH]4)c3c2)c(Cl)c1 [Compound 2168, 7-(2-chloro-4-methoxyphenyl)-1-((5-fluoro-1H-imidazo[4,5-b]pyridin-2-yl)methyl)quinolin-4(1H)-one]	5.21	> 7.40	> 7.60	> 1.25	–	> 7.40	> 2.5	–	< 6.70	–	–	–	–	–
COc1ccc(-c2ccc(NS(C)(=O)=O)c3nc(Cc4nc5nc(Cl)ccc5[nH]4)cn23)c(Cl)c1 [Compound 2174, N-[2-({5-chloro-1H-imidazo[4,5-b]pyridin-2-yl}methyl)-5-(2-chloro-4-methoxyphenyl)imidazo[1,2-a]pyridin-8-yl]methanesulfonamide]	6.71	> 7.40	> 7.60	0.158 (≈ 0.305 µM)	0.319 (≈ 0.617 µM)	> 7.40	0.318 (≈ 0.615 µM)	–	–	–	5.92	–	–	–
COc1ccc(-c2ccc(NC(C)=O)c3nc(Cc4nc5nc(Br)ccc5[nH]4)cn23)c(Cl)c1 [Compound 2184, N-[2-({5-bromo-1H-imidazo[4,5-b]pyridin-2-yl}methyl)-5-(2-chloro-4-methoxyphenyl)imidazo[1,2-a]pyridin-8-yl]acetamide]	7.53	> 7.40	> 7.60	0.201 (≈ 0.382 µM)	0.435 (≈ 0.827 µM)	> 7.40	0.286 (≈ 0.544 µM)	7.64	–	–	6.14	–	–	–
CC(C)NCC(O)Cn1c(Cc2ccc(Cl)cc2Cl)cn(Cc2nc3cc(F)c(F)cc3[nH]2)c1=O (stereo not drawn) [Compound 2293, 4-[(2,4-dichlorophenyl)methyl]-1-[(5,6-difluoro-1H-1,3-benzodiazol-2-yl)methyl]-3-{2-hydroxy-3-[(propan-2-yl)amino]propyl}-2,3-dihydro-1H-imidazol-2-one]	–	–	–	> 8	–	–	–	–	6.08	–	–	–	> 8	–
CC(C)NCC(O)Cn1c(Cc2ccc(Cl)cc2Cl)cn(Cc2nc3ccc(F)nc3[nH]2)c1=O (stereo not drawn) [Compound 2294, 4-[(2,4-dichlorophenyl)methyl]-1-({5-fluoro-1H-imidazo[4,5-b]pyridin-2-yl}methyl)-3-{2-hydroxy-3-[(propan-2-yl)amino]propyl}-2,3-dihydro-1H-imidazol-2-one]	5.48	–	–	> 8	–	–	–	–	7.52	–	–	–	> 8	–
CCn1c(Cc2c(Cl)cc(Cl)cc2OC)cn(Cc2nc3ccc(Cl)nc3[nH]2)c1=O [Compound 2295]	8.28	–	–	–	–	–	–	8.34	> 9.04	9.15	–	–	1.16 (≈ 2.49 µM)	0.124 (≈ 0.266 µM)
